Results on ten molecules are retold here after ChEMBL document CHEMBL3352254, “Inhibitors of HGFA, Matriptase, and Hepsin Serine Proteases: A Nonkinase Strategy to Block Cell Signaling in Cancer” (ACS Med Chem Lett, 2014).

pEC50, pKi: −log10 of the molar value. Residues, ends and D or L forms follow the SMILES beside them.

In assay [1] the target is T1, Suppressor of tumorigenicity 14 protein (Homo sapiens, UniProt Q9Y5Y6).
T1 sequence (Q9Y5Y6 whole entry): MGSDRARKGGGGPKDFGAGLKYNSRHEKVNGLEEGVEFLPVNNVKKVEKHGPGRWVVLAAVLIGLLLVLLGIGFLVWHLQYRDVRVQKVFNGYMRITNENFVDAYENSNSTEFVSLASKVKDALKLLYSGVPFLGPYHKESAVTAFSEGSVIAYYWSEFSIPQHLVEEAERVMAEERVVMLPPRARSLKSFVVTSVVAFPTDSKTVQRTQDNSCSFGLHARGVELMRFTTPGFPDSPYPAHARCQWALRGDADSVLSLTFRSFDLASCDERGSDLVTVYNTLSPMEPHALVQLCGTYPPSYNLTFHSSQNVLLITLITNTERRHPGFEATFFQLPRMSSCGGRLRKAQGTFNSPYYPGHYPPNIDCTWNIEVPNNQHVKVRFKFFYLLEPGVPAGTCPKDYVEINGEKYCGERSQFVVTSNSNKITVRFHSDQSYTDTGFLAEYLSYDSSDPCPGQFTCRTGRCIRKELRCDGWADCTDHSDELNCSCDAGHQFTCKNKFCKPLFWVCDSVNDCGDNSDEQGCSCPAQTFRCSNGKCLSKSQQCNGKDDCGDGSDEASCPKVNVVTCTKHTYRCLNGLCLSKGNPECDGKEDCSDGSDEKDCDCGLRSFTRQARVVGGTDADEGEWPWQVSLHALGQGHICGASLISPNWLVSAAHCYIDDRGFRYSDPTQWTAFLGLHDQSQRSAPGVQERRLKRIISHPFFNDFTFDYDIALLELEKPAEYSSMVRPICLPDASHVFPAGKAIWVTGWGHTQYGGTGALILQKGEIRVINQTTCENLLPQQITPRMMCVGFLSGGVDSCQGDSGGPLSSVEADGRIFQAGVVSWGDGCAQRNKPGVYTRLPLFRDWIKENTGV
The assay is described as follows: Inhibition of matriptase (unknown origin) using Boc-QAR-AMC as substrate by fluorescence assay.

In assay [2] the target is T2, Hepatocyte growth factor activator serine protease (Homo sapiens) (UniProt Q04756).
T2 sequence (whole entry): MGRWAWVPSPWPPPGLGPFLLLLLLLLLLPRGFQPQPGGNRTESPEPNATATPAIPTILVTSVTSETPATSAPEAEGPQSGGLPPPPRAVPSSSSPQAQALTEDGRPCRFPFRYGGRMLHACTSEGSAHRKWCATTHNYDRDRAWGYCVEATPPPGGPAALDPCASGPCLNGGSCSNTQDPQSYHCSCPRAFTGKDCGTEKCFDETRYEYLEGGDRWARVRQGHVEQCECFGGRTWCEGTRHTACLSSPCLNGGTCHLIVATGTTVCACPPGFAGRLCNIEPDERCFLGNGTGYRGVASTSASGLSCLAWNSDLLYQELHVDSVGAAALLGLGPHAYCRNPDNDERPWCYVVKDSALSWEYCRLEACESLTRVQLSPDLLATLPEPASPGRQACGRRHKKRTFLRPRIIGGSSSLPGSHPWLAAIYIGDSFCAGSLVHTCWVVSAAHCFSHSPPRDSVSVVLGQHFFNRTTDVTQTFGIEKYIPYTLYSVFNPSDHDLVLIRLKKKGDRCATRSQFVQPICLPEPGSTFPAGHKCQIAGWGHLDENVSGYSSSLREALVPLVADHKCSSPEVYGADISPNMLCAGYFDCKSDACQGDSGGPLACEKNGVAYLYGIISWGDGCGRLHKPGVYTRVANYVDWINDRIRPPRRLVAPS
Kind of assay: Inhibition of recombinant HGFA (unknown origin)-mediated proteolytic activation of pro-MSP after 1 hr by immunoblotting.

Assay [3] is filed under the species Homo sapiens. Kind of assay: Ratio of Ki for matriptase (unknown origin) to Ki for recombinant HGFA (unknown origin).
Assay [4] is filed under the species Homo sapiens. Kind of assay: Ratio of Ki for matriptase (unknown origin) to Ki for recombinant hepsin (unknown origin).
Assay [5] has as its target T3, Hepatocyte growth factor activator serine protease (Homo sapiens, UniProt Q04756).
T3 sequence (Q04756 whole entry): T2 sequence (whole entry)
Kind of assay: (§1) Inhibition of HGFA in human MDA-MB-231 cells assessed as inhibition of c-MET phosphorylation after 15 mins by immunoblotting. Format: cell-based. (A western blot detects proteins with antibodies after separation by electrophoresis.)

The target of another assay is Serine protease hepsin (Homo sapiens, UniProt P05981). The assay is described as follows: Inhibition of recombinant hepsin (unknown origin) using Boc-QAR-AMC as substrate by fluorescence assay.
Serine protease hepsin, sequence (P05981 1-162 limits assumed): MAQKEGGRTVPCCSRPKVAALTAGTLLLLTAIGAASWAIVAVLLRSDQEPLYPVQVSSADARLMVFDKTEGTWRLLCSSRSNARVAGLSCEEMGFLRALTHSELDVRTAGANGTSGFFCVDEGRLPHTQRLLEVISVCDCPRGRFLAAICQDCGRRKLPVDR
Serine protease hepsin, sequence (P05981 163-417 limits assumed): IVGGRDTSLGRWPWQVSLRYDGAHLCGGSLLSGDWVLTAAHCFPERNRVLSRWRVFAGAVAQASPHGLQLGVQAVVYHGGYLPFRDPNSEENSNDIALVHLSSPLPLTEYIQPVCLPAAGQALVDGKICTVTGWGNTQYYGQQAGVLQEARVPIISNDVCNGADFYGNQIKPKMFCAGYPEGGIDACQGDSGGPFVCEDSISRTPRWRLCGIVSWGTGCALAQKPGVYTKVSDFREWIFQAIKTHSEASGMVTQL
In assay [6] the target is T2, Hepatocyte growth factor activator serine protease (Homo sapiens). Kind of assay: Inhibition of recombinant HGFA (unknown origin)-mediated proteolytic activation of pro-HGF after 1 hr by immunoblotting.
For assay [7] the target is unchanged. The description is as §1. Format: cell-based.

As usually defined, the pKi is the Ki on a negative log10 scale, so that one unit is a factor of ten. For the molecule `CC(=O)N[C@@H](CCCCN)C(=O)N[C@@H](Cc1cnc[nH]1)C(=O)N[C@@H](CC(C)C)C(=O)N[C@@H](CCCNC(=N)N)C(=O)c1nccs1`, the pKi in assay [1] is 7.66.

In the case of `CC(=O)N[C@@H](CO)C(=O)N[C@@H](CCCNC(=N)N)C(=O)N[C@@H](CC(C)C)C(=O)N[C@@H](CCCNC(=N)N)C(=O)c1nccs1`, in assay [2], the inhibition result is “Dose-dependent effect”. For the molecule `CC(=O)N[C@@H](CC(C)C)C(=O)N[C@@H](CC(C)C)C(=O)N[C@H](C=O)CCCNC(=N)N`, the Ratio Ki in the assay listed under Homo sapiens [3] and in the assay listed under Homo sapiens [4] was 3 throughout.

The term pEC50 denotes the EC50 on a negative log10 scale, so that one unit is a factor of ten. As to `N=C(N)c1ccc2cc(OC(=O)c3ccc(N=C(N)N)cc3)ccc2c1` [NAFAMOSTAT], the pEC50 in assay [5] was 6.31. Take `CC(=O)N[C@@H](CCCCN)C(=O)N[C@@H](CCC(N)=O)C(=O)N[C@@H](CC(C)C)C(=O)N[C@@H](CCCNC(=N)N)C(=O)c1nccs1`: the pKi in assay [1] was 9.04; at Serine protease hepsin, 9.66. Further, in the assay listed under Homo sapiens [4], the Ratio Ki was 200. The inhibition result in assay [2] and in assay [6] was “Dose-dependent effect” each time. Regarding `CC(=O)N[C@@H](Cc1c[nH]c2ccccc12)C(=O)N[C@@H](CCCNC(=N)N)C(=O)N[C@@H](CC(C)C)C(=O)N[C@@H](CCCNC(=N)N)C(=O)c1nccs1`, the inhibition entry in assay [2] and in assay [6] was “Dose-dependent effect” in each case.

As for `CC(=O)N[C@@H](CCCCN)C(=O)N[C@@H](CCCNC(=N)N)C(=O)N[C@@H](CC(C)C)C(=O)N[C@@H](CCCNC(=N)N)C(=O)c1nccs1`, the inhibition result in assay [7], in assay [2] and in assay [6] was “Dose-dependent effect” in each case. Regarding `CC(C)C[C@H](NC(=O)[C@H](CCCNC(=N)N)NC(=O)[C@@H](N)CCCCN)C(=O)N[C@@H](CCCNC(=N)N)C(=O)O` (H-KRLR-OH), the negative-log EC50 (pEC50) in assay [5] was 6.74. On the same count and under the same terms, the value for `CC(C)C[C@H](NC(=O)[C@H](CCC(N)=O)NC(=O)[C@@H](N)CCCCN)C(=O)N[C@@H](CCCNC(=N)N)C(=O)O` (H-KQLR-OH) was 5.51. The molecule `CC(=O)N[C@@H](Cc1c[nH]c2ccccc12)C(=O)N[C@@H](CCC(N)=O)C(=O)N[C@@H](CC(C)C)C(=O)N[C@@H](CCCNC(=N)N)C(=O)c1nccs1` gave a pKi in assay [1] of 7.49.
